In the SangsterLogP compilation one finds logP and logD data, which are given here for 44 compounds.

Broadly, the logP is a log measure of how a compound divides between an organic and an aqueous phase. Lower therefore signals lower lipophilicity. The term logD denotes the decadic logarithm of the distribution of all forms, ionised or not, between an organic phase and buffer at a given pH.

Data set [1] can be described thus: method code SF-AS, from DOI: 10.1002/jps.2600741028, PMID: 4078715.
Data set [2] is described as follows: method code SF-HPLC, from DOI: 10.1021/js970291i, PMID: 9523983. Particulars: pH 7.4.
A short description of data set [3]: method code SF-AS, from DOI: 10.1021/jm00254a028, PMID: 4845386.
Data set [4] can be described thus: method code SF, from DOI: 10.3109/00498258709043934, PMID: 3564538.
Data set [5] in a line: method code SF-GLC, from DOI: 10.1002/ps.2780120408. Particulars: pH 7.0.
Assay in data set [6]: not given
The source holds these as a separate data set.

A short description of data set [7]: method code SF-HPLC, from DOI: 10.1002/jps.2600830120, PMID: 8138917. Particulars: pH 7.4.
Data set [8] can be described thus: method code SF-HPLC, from DOI: 10.1016/j.ejps.2013.04.020, PMID: 23624327.
Data set [9] is described as follows: method code SF, from DOI: 10.1016/0048-3575(89)90162-4.
Data set [10] in a line: method code SF-HPLC, from DOI: 10.1016/j.bmcl.2010.02.057, PMID: 20231095. Particulars: pH 7.4.
The conditions of data set [11]: pH 7.4.
Assay in data set [12]: not given
This is another data set of the same source.

The nature of data set [13]: method code SF-RC, from DOI: 10.1023/a:1015892313856, PMID: 1495896. Particulars: pH 7.2.
Assay in data set [14]: not given
This is another data set of the same source.

The nature of data set [15]: method code SF, from DOI: 10.1007/bf01610114, PMID: 6839039.
A short description of data set [16]: method code SF-HPLC, from DOI: 10.1023/a:1015968113838, PMID: 3247280. Particulars: pH 7.4.
Data set [17] is described as follows: method code SF-RC, from DOI: 10.1016/s0969-8051(03)00050-7, PMID: 12900283. Particulars: pH 7.4.
A short description of data set [18]: method code SF-AS, from DOI: 10.1021/jm00384a018, PMID: 3806586.
Assay in data set [19]: not given
The source holds these as a separate data set.

A short description of data set [20]: method code SF-RC, from DOI: 10.1016/0969-8051(94)00090-7, PMID: 7767321. Particulars: pH 7.4.
A short description of data set [21]: method code SF-RC, from DOI: 10.1021/es00096a007.
A short description of data set [22]: method code SF, from DOI: 10.1016/0006-2952(79)90295-8, PMID: 36087.
Assay in data set [23]: not given
This is another data set of the same source.

Assay in data set [24]: not given
The source holds these as a separate data set.

Data set [25] in a line: method code SF-HPLC, from DOI: 10.1002/jps.23140, PMID: 22499243. Particulars: pH 7.4.
Assay in data set [26]: not given
This is another data set of the same source.

The nature of data set [27]: method code SF-RC, from DOI: 10.1002/jps.2600651126, PMID: 11336. Particulars: pH 2.0.
Assay in data set [28]: not given
The source holds these as a separate data set.

A short description of data set [29]: method code SF-AS, from DOI: 10.1021/jm00392a004, PMID: 3625703. Particulars: pH 6.9.
A short description of data set [30]: method code SF-RC, from DOI: 10.1111/j.2042-7158.1987.tb06949.x, PMID: 2882008. Particulars: pH 1.0.
The nature of data set [31]: method code SF-RC, from DOI: 10.1016/j.nucmedbio.2009.09.005, PMID: 20447558. Particulars: pH 7.4.
Data set [32] can be described thus: method code SF-AS, from DOI: 10.1248/cpb.41.171. Particulars: pH 7.0.
Assay in data set [33]: not given
This is another data set of the same source.

Data set [34] can be described thus: method code SF-HPLC, from DOI: 10.1016/0928-0987(95)00046-1. Particulars: pH 4.0.
A short description of data set [35]: method code SF, from PMID: 8265709. Particulars: pH 7.4.
The conditions of data set [36]: pH 7.4. This is another data set of the same source.
Data set [37] is described as follows: method code SF-HPLC, from DOI: 10.1021/jm00119a020. Particulars: pH 7.4.
A short description of data set [38]: method code SF-GLC, from DOI: 10.1016/0048-3575(86)90042-8.
Assay in data set [39]: not given
The source holds these as a separate data set.

A short description of data set [40]: method code SF-AS, from DOI: 10.1021/jm00160a012, PMID: 3761307. Particulars: pH 7.4.
Data set [41] is described as follows: method code SF-AS, from DOI: 10.1081/jlc-100104900. Particulars: pH 1.0.
Data set [42] in a line: method code SF-RC, from DOI: 10.1016/s0969-8051(01)00264-5, PMID: 11711307. Particulars: pH 7.4.
Assay in data set [43]: not given
This is another data set of the same source.

Peptide text beside a SMILES is read from it. * marks the point of attachment. NHtBu = CC(C)(C)N*

In data set [1], `COc1ccc(C=[N+]([O-])c2ccccc2)cc1` came in with a logP of 1.94.
With `OCCN1CCC(COc2ccc(I)cc2)CC1`, the logP turned out to be 4.
Turning to `Cc1ccnc2c1NC(=O)c1cccnc1N2C1CC1`, the logD in data set [2] came to 1.81.
In the case of `OC1c2ccccc2C2CCCCC2C1O` (centres undefined), the logP in data set [3] worked out at 2.47.
In data set [4], `CCC(C)OC(=O)C(C(=O)OC(C)CC)=C1SC=CS1` (centres undefined) returned a logP of 4.89.
`CCOP(=S)(Oc1ccc([N+](=O)[O-])cc1)c1ccccc1` (centres undefined) displayed a logD in data set [5] of 3.85.
`Cn1ccc2cc(-c3nc4ccc(F)nc4o3)ccc21` showed a logP in data set [6] of 3.42.
Consider `CC(C(N)=O)c1ccc(-c2ccccc2)c(F)c1` (centres undefined), for which the log distribution coefficient (logD) in data set [7] amounted to 3.2.
Compound `O=C(/C=C/c1ccc(O)cc1)c1ccc(O)cc1O` yielded a logP in data set [8] of 1.91.
Take `OC1(c2ccccc2Cl)CCCCC1n1cncn1` (centres undefined): the logP in [9] amounted to 2.68.
Regarding `CCCC(=O)OC(C)OC(=O)c1sc2cc(O)c(O)cc2c1Cl` (centres undefined), the logD in data set [10] was determined as 2.16.
Take `CC(=O)OCC(CCn1cnc2cnc(N)nc21)COC(C)=O`: in [11], the logD amounted to 0.32.
With `c1ccc(CCc2ccccc2)cc1`, in [12], the logP worked out at 4.6.
In the case of `CC(=O)NC(C)C(=O)N1CCCC1C(=O)NC(C)(C)C` (stereo not drawn) (Ac-Ala-Pro-NHtBu; configuration not given here), the logD in data set [13] was -0.39.
Regarding `CC[C@@H](c1cccc(O)c1)[C@@H](C)CN(C)C`, the logP in data set [14] is 2.77.
Turning to `C=CCOC(=O)c1ccccc1C(=O)OCC=C`, the logP in data set [15] is 3.23.
In data set [16], `CCCCC(=O)OCC1OC(n2cc(I)c(=O)[nH]c2=O)CC1O` (centres undefined) yielded a logD of 1.44.
Turning to `CN(C)c1ccc2c(c1)Cc1cc(I)ccc1-2`, the logD in [17] was 2.47.
For the compound `CC(=O)C1=CCCN(NC(=O)c2ccccc2)C1`, the logP in data set [18] is -0.1.
`Cc1cc(NC(=O)C2=C(O)c3ccccc3S(=O)(=O)N2C)no1` yielded a logP in data set [19] of 2.83.
With `CC(C)(C(=O)c1ccccc1I)c1cccnc1`, the logD in data set [20] stood at 2.19.
The compound `Nc1ccc2cc3ccccc3cc2c1` showed a logP in [21] of 4.13.
On to `CC(C)NCC(O)COc1cccc(CC(N)=O)c1` (centres undefined), for which the logP in data set [22] was 0.22.
Compound `O=c1ccn(CCO)c(C(O)c2ccccc2)c1O` (centres undefined) showed a logP in data set [23] of 0.58.
`O=C1CN=C(c2cccc(Br)c2)c2cc(Br)ccc2N1` gave a logP in [24] of 3.88.
The compound `CCCCCCOP1(=O)COC(Cn2ccc(N)nc2=O)CO1` (centres undefined) had a logD in data set [25] of 2.84.
In [26], `Cc1cc2cc[nH]c2c(C(=O)Nc2ncccc2C)n1` yielded a logP of 5.3.
Turning to `CSc1ccc2oc3ccc(C(=O)O)cc3c(=O)c2c1`, the logD in [27] worked out at 3.4.
`O=CC1=CC=C2C(C(=O)O)CCN2c2cc(Br)ccc21` (centres undefined): the logP in data set [28] amounted to 3.6.
Consider `CCCCC1(c2ccncc2)CCC(=O)NC1=O` (centres undefined), for which the logD in data set [29] amounted to 1.68.
In data set [30], `Cc1c(Cl)cccc1Nc1ccccc1C(=O)O` showed a logD of 4.18.
Compound `CN(CCc1ccccc1)C(=O)c1ccc[nH]1` displayed a logD in data set [31] of 1.65.
In data set [32], `Cc1cc(-n2[nH]c3c(cnc4ccccc43)c2=O)cs1` came in with a logD of 1.58.
As for `C(=C\c1ccccc1)/c1ccccc1`, the logP in data set [33] amounted to 4.59.
As for `Cc1cnc(NC(=O)C2=C(O)c3ccccc3S(=O)(=O)N2C)s1`, in data set [34], the logD was 2.34.
Regarding `Cc1c(C(C)C)c(=O)n(-c2ccccc2)n1C`, the logD in data set [35] was determined as 1.94.
For `CCCC(=O)OCOC(=O)c1ccccc1OC(C)=O`, the logD in data set [36] came to 2.5.
For the compound `CCCN1CCO[C@H]2c3cc(O)ccc3OC[C@@H]21`, the logD in [37] came to 1.97.
Take `ClC1(Cl)CC1(c1ccccc1)c1ccccc1`: the logP in data set [38] turned out to be 4.88.
The compound `CCCCC(O)(Cn1cncn1)c1ccc(Cl)cc1Cl` (centres undefined) had a logP in data set [39] of 3.9.
Consider `CC1=C(N)C(=O)c2c(COC(N)=O)c3n(c2C1=O)CC(N1CC1)C3N1CC1` (centres undefined), for which the logD in data set [40] turned out to be 0.23.
In data set [41], `CC(C(=O)O)c1cccc(Oc2ccccc2)c1` (centres undefined) displayed a logD of 3.45.
In data set [42], `CN(C)c1ccc(-c2nc3ccc(I)cc3o2)cc1` came in with a logD of 2.09.
In the case of `COC(=O)C1(O)c2ccccc2-c2ccc(Cl)cc21` (centres undefined), the logP in data set [43] was 2.86.
